Laboratory results from publication PMC8296985, “A Covalent Calmodulin Inhibitor as a Tool to Study Cellular Mechanisms of K-Ras-Driven Stemness” (Frontiers in Cell and Developmental Biology, 2021).

Experiments:
H-RasG12V = H-RasG12V nanoclustering-BRET assay in HEK293-EBNA cells; type: cell-based; details: FTI-277 1 μM, 24 h
Experimental: BRET assays were essentially performed as described by others ([Lavoie et al., 2013]; [Bery et al., 2018]). About 100,00–150,000 HEK293-EBNA ([Meissner et al., 2001]) cells were seeded per well of a 12-well plate in 1 ml of DMEM containing 10% FBS and 2 mM L-glutamine and were grown for 24 h. Next day, Rluc8-tagged donor and GFP2-tagged acceptor constructs were transfected into cells using a jetPRIME transfection reagent (cat. no. 114-75, Polyplus). Each well was transfected with about 1 μg of plasmid DNA using 3 μl of the jetPRIME reagent. […] Then fluorescence intensity followed by BRET readings were carried out on a Clariostar (BMG Labtech) plate reader at 25°C. The fluorescence intensity (RFU) of GFP2 was measured with excitation at 405 ± 10 nm and emission 515 ± 10 nm; it is proportional to the acceptor concentration [acceptor]. BRET readings were taken well by well by adding 10 μl of 100 μM coelenterazine 400a (cat. no. C-320, GoldBio), the Rluc8 substrate to each well (final concentration of 10 μM) using the injector present in the plate reader. Luminescence emission intensities were simultaneously recorded at 410 ± 40 nm (RLU, proportional to [donor]) and 515 ± 15 nm (BRET signal).
The raw BRET ratio was calculated as the BRET signal measured at 515 nm divided by the emission signal measured at 410 nm (RLU). […]

α-hemoglobin = tested on: α-hemoglobin; set-up: method as in earlier work; details: formyl warhead, ref Center for Drug Evaluation and Research, 2017, Metcalf et al.; cited from earlier work
K-RasG12V = K-RasG12V nanoclustering-BRET assay in HEK293-EBNA cells; type: cell-based; details: 24 h; calmidazolium 20 μM, OphA 2.5 μM, prostratin 10 μM, mevastatin 10 μM, benzazulenones 20 μM
Experimental: (§1) BRET assays were essentially performed as described by others ([Lavoie et al., 2013]; [Bery et al., 2018]). About 100,00–150,000 HEK293-EBNA ([Meissner et al., 2001]) cells were seeded per well of a 12-well plate in 1 ml of DMEM containing 10% FBS and 2 mM L-glutamine and were grown for 24 h. Next day, Rluc8-tagged donor and GFP2-tagged acceptor constructs were transfected into cells using a jetPRIME transfection reagent (cat. no. 114-75, Polyplus). Each well was transfected with about 1 μg of plasmid DNA using 3 μl of the jetPRIME reagent. For BRET donor saturation titration experiments, the concentration of donor plasmid (25 ng) was kept constant, and the concentration of acceptor plasmid was increased from 0 to 500 ng for RasG12V BRET pairs and 0–1,000 ng for K-Ras/CaM BRET pairs. The empty pcDNA3.1(-) plasmid was used to top-up the total DNA load per transfection. After 24 h of transfection, cells were treated with compounds or vehicle control (DMSO 0.2% v/v in a growth medium) at the specified concentration for 24 h or the stipulated time period in case of the time-course experiments. The cells from one well of a 12-well plate were collected, washed, and re-plated in PBS (cat. no. 14190-094, Gibco, Thermo Fisher Scientific) on flat bottom, white 96-well plates (cat. no. 236108, Nunc, Thermo Fisher Scientific) as four technical replicates containing 90 μl of cell suspension per well. Then fluorescence intensity followed by BRET readings were carried out on a Clariostar (BMG Labtech) plate reader at 25°C. The fluorescence intensity (RFU) of GFP2 was measured with excitation at 405 ± 10 nm and emission 515 ± 10 nm; it is proportional to the acceptor concentration [acceptor]. BRET readings were taken well by well by adding 10 μl of 100 μM coelenterazine 400a (cat. no. C-320, GoldBio), the Rluc8 substrate to each well (final concentration of 10 μM) using the injector present in the plate reader. Luminescence emission intensities were simultaneously recorded at 410 ± 40 nm (RLU, proportional to [donor]) and 515 ± 15 nm (BRET signal).
(§2) The raw BRET ratio was calculated as the BRET signal measured at 515 nm divided by the emission signal measured at 410 nm (RLU). The BRET ratio was obtained by subtracting the raw BRET ratio by a background BRET signal measured for cells expressing only the donor ([Bacart et al., 2008]) as indicated in the formula below:
(§3) For BRET donor saturation titration experiments, the BRET ratio was plotted against the [acceptor]/[donor] ratio. Technical repeat data points were averaged, and data points from all biological repeats were collected into one graph for subsequent fitting. The BRET ratio vs. relative expression data were fitted using a binding saturation equation in the Prism (GraphPad) software to obtain BRETmax and BRET50 using the equation y=BRETmax×x/BRET50+x , where x is the relative expression and y is the BRET ratio. BRETmax represents the maximum saturation BRET signal and depends on the structural parameters (distance, orientation) of the BRET complex. BRET50 corresponds to the ratio of the acceptor construct over the donor construct required to attain 50% of the maximum BRET signal and is a measure of the effective relative affinity between the interacting BRET pair ([Marullo and Bouvier, 2007]).
When applying the DSS analysis to nanoclustering-BRET data, we used mevastatin (10 μM) to obtain the asymptote parameter (a) for the maximal inhibition effect, as it prevents the prenylation of Ras proteins, their plasma membrane trafficking, and therefore nanoclustering. Otherwise, normalized BRET ratio data were converted to % inhibition and then subsequently uploaded onto the Breeze site (see text footnote 1).

K-RasG12V/CaM = target: T1, K-RasG12V/CaM (Homo sapiens, UniProt P0DP23); experiment: Rluc8-K-RasG12V/GFP2-CaM interaction BRET in HEK293-EBNA cells; type: cell-based; details: calmidazolium 20 μM, prostratin 20 μM, OphA 5 μM
T1 construct: expressed in transfected cells; host or cells: HEK293-EBNA
Experimental: as §1, §2, §3

HeLa cells = experiment: Centrosome number / multipolar phenotype in synchronized HeLa cells expressing mCherry-CaM; type: cell-based; details: 2 h; calmidazolium 20 μM, 1 50 μM, with MG132 10 μM
Experimental: To evaluate the effect of compounds on centrosome numbers during mitosis, HeLa cells were seeded in 6-well plates onto sterile coverslips and cotransfected with 0.5 μg of pmCherry-CaM and 1.5 μg pEGFP-Centrin1 plasmids using 4 μl of jetPRIME. Twenty-four hours after the transfection, cells were synchronized with 60 ng/ml of nocodazole for 16 h. After the removal of nocodazole, the cells were treated with the […] MG132 (10 μM) to block the cells in metaphase and either calmidazolium (20 μM), 1 (50 μM), or DMSO (0.5%) for 2 h. Cells were then fixed with 4% paraformaldehyde in PBS for 10 min at ambient temperature. After washing with PBS-Tween 0.05%, DNA was stained with a 1 μg/ml solution of DAPI diluted in PBS for 10 min. Coverslips were mounted on glass slides using Vectashield, and images were captured on a spinning disk confocal microscope. Images were analyzed with the ImageJ software, and the number of transfected mitotic cells with multipolar and normal bipolar phenotypes was counted (between 35 and 70 cells per test condition). The percentage multipolar vs. bipolar cells was computed to generate the plot using the Prism software.

CaM = target: CaM; set-up: method as in Manoharan et al., 2019; details: ref Manoharan et al., 2019; cited from earlier work

COC(=O)[C@H](CCSC)NC(=O)c1ccc(NC[C@@H](N)CS)cc1-c1ccccc1 [FTI-277]
H-Ras selective decrease of nanoclustering-BRET (H-RasG12V): 1.4 fold

CC(C)n1nccc1-c1ncccc1COc1cccc(O)c1C=O [GBT440]
k2/Ki (α-hemoglobin): 15 × 10^3 M^–1 h^–1

Clc1ccc(C(c2ccc(Cl)cc2)n2cc[n+](CC(OCc3ccc(Cl)cc3Cl)c3ccc(Cl)cc3Cl)c2)cc1 (stereo not drawn) [calmidazolium]
K-Ras selective reduction of nanoclustering-BRET (K-Ras vs H-Ras) (K-RasG12V): 1.5 fold
effect on Rluc8-K-RasG12V/GFP2-CaM BRET signal, single concentration (K-RasG12V/CaM): significantly reduced the BRET signal
multipolar phenotype (multiple mCherry-CaM-positive centrosomes) (HeLa cells): increased fraction of multipolar cells
Kd (CaM): 13.5 nM
